Read-outs that look alike come from different tables or passages of the source.
Columns and labels:
all 50 cell lines = assay: CellTiter-Glo Viability Assay, average across all cell lines; type: cell-based; conditions: Homo sapiens; across all 50 cell lines; read-out: average EC50 for inhibition of cancer cell proliferation
Outline: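 4-day proliferation, 37° C/5% CO2; 300-3,000 cells/well; compound in duplicate vs DMSO controls. Panel: breast, colorectal, heme/lymphoid, liver, lung, ovarian, pancreatic, prostate lines. Read-out: CellTiter-Glo ATP luminescence, EC50 from dose-response.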

CLK2 = biological target: T1, CLK2 (Homo sapiens, UniProt P49760); assay: CLK2 kinase activity assay (Z-lyte, Ser/Thr 6 peptide); type: biochemical; conditions: recombinant CLK2 kinase, ATP 60 μM; read-out: EC50
T1 construct: purchased Thermo Fisher (Life Technologies), Z'-LYTE Kinase Assay Kits
Procedure: All reactions were performed in duplicate.

[1] = tested on: prostate cancer (5 cell lines); assay: CellTiter-Glo Viability Assay, prostate cancer; type: cell-based; conditions: Homo sapiens
CLK3 = CLK3 (Homo sapiens, UniProt P49761); assay: CLK3 kinase activity assay (Z-lyte, Ser/Thr 18 peptide)
Procedure: Each compound was dissolved in DMSO as a 10 mM stock and used to prepare compound source plates.
This is a non-radioactive assay using fluorescence resonance energy transfer (FRET) between coumarin and fluorescein to detect kinase activity which is represented as a ratio of coumarin emission/fluorescein emission.
All reactions were performed in duplicate. Unphosphorylated (“0% Control”) and phosphorylated (“100% control”) forms of Ser/Thr 18 served as control reactions. Additionally, an 11-point dose-response curve of Staurosporine (1 uM top) was run to serve as a positive compound control.
After incubation, Development Reagent A was diluted in Development Buffer then added to the reaction and allowed to further incubate for one hour at room temperature.
Dose-response curves were generated and inhibitory concentration (IC50) values were calculated using non-linear regression curve fit in the Dotmatics' Studies Software (Bishops Stortford, UK).
Compounds were acoustically transferred on 1536-well plates (Echo 550, LabCyte) instrument. Kinase, peptide, and ATP reagents from the Z′-LYTE Kinase Assay Kits (Thermo Fisher) were dispensed onto the compound plates using an EL406 liquid dispenser (BioTek). Plates were incubated in the dark at room temperature for 1 hr. Development reagent was added to the plates and then incubated in the dark at room temperature for 1 hr. Fluorescence signal form the plate was then read using an EnVision Multilabel Plate Reader (Perkin Elmer).

[2] = tested on: pancreatic cancer (8 cell lines); assay: CellTiter-Glo Viability Assay, pancreatic cancer; type: cell-based; conditions: Homo sapiens, inhibition of cancer cell proliferation
[3] = tested on: ovarian cancer (4 cell lines); assay: CellTiter-Glo Viability Assay, ovarian cancer; type: cell-based; conditions: Homo sapiens, inhibition of cancer cell proliferation
[4] = tested on: haematopoietic & lymphoid tumors (13 cell lines); assay: CellTiter-Glo Viability Assay, haematopoietic & lymphoid tumors; type: cell-based; conditions: Homo sapiens, inhibition of cancer cell proliferation
[5] = tested on: liver cancer (3 cell lines); assay: CellTiter-Glo Viability Assay, liver cancer; type: cell-based; conditions: Homo sapiens, inhibition of cancer cell proliferation
[6] = tested on: colorectal cancer (6 cell lines); assay: CellTiter-Glo Viability Assay, colorectal cancer; type: cell-based; conditions: Homo sapiens, inhibition of cancer cell proliferation
BT-549 = assay: CellTiter-Glo Viability Assay, breast cancer; type: cell-based; conditions: Homo sapiens, 96 h; BT-549, breast cancer, four days; read-out: EC50
CAMA1 = assay: CellTiter-Glo Viability Assay, breast cancer; type: cell-based; conditions: Homo sapiens, CAMA-1, 96 h; CAMA1, breast cancer, four days; read-out: EC50
ZR-75-1 = assay: CellTiter-Glo Viability Assay, breast cancer; type: cell-based; conditions: Homo sapiens, 96 h; ZR-75-1, breast cancer, four days; read-out: EC50
MCF7 = assay: CellTiter-Glo Viability Assay, breast cancer; type: cell-based; conditions: Homo sapiens, 96 h; MCF7, breast cancer, four days; read-out: EC50
DU4475 = assay: CellTiter-Glo Viability Assay, breast cancer; type: cell-based; conditions: Homo sapiens, DU-4475, 96 h; DU4475, breast cancer, four days; read-out: EC50
MDA-MB-231-Luc = assay: CellTiter-Glo Viability Assay, breast cancer; type: cell-based; conditions: Homo sapiens, 96 h; MDA-MB-231-Luc, breast cancer, four days; read-out: EC50
HCC1599 = assay: CellTiter-Glo Viability Assay, breast cancer; type: cell-based; conditions: Homo sapiens, 96 h; HCC1599, breast cancer, four days; read-out: EC50
T47D = assay: CellTiter-Glo Viability Assay, breast cancer; type: cell-based; conditions: Homo sapiens, 96 h, breast cancer, four days, read-out: EC50
[7] = tested on: lung cancer (4 cell lines); assay: CellTiter-Glo Viability Assay, lung cancer; type: cell-based; conditions: Homo sapiens, inhibition of cancer cell proliferation
[8] = DU-145, read-out: Prostate cancer EC50 Du-145
[9] = PC-3, PC3 cell line, inhibition of cancer cell proliferation, read-out: Prostate cancer EC50 PC3
[10] = 22Rv1 cell line, inhibition of cancer cell proliferation, read-out: Prostate cancer EC50 22Rv1
[11] = LNCap clone FGC cell line, inhibition of cancer cell proliferation, read-out: Prostate cancer EC50 LNCap clone FGC
[12] = VCaP (Sigma) cell line, inhibition of cancer cell proliferation, read-out: Prostate cancer EC50 VCaP (Sigma)
[13] = BXPC-3, BxPC3 cell line, read-out: Pancreatic cancer, EC50 BxPC3
[14] = CAPAN-1, Capan1 cell line, read-out: Pancreatic cancer, EC50 Capan1
[15] = Capan-2, Capan2 cell line, read-out: Pancreatic cancer, EC50 Capan2
[16] = MIA PaCa-2 cell line, read-out: Pancreatic cancer, EC50 MIA PaCa-2
[17] = PANC 05.04 cell line, read-out: Pancreatic cancer, EC50 PANC 05.04
[18] = PANC-1 cell line, read-out: Pancreatic cancer, EC50 PANC-1
[19] = UPAFII cell line, read-out: Pancreatic cancer, EC50 UPAFII
[20] = PA-1, PA1 cell line, read-out: Ovarian cancer, EC50 (μM) PA1
[21] = TOV112D, TOV-112D cell line, read-out: Ovarian cancer, EC50 (μM) TOV-112D
[22] = OV-90 cell line, read-out: Ovarian cancer, EC50 (μM) OV-90
[23] = OVCAR-3 cell line, read-out: Ovarian cancer, EC50 (μM) OVCAR-3
[24] = DND41, DND-41 cell line, read-out: Haematopoietic & Lymphoid tumors, EC50 (μM) DND-41
[25] = MV4-11, MV-4-11 cell line, read-out: Haematopoietic & Lymphoid tumors, EC50 (μM) MV-4-11
[26] = Rec1, REC-1 cell line, read-out: Haematopoietic & Lymphoid tumors, EC50 (μM) REC-1
[27] = SU-DHL-4, SUDHL4 cell line, read-out: Haematopoietic & Lymphoid tumors, EC50 (μM) SUDHL4
[28] = HL-60 cell line, read-out: Haematopoietic & Lymphoid tumors, EC50 (μM) HL-60
[29] = JM1 cell line, read-out: Haematopoietic & Lymphoid tumors, EC50 (μM) JM1
[30] = JURKAT, Clone E6-1 cell line, read-out: Haematopoietic & Lymphoid tumors, EC50 (μM) JURKAT, Clone E6-1
[31] = JeKo-1 cell line, read-out: Haematopoietic & Lymphoid tumors, EC50 (μM) JeKo-1
[32] = KASUMI-1 cell line, read-out: Haematopoietic & Lymphoid tumors, EC50 (μM) KASUMI-1
[33] = Loucy cell line, read-out: Haematopoietic & Lymphoid tumors, EC50 (μM) Loucy
[34] = MOLT-4 cell line, read-out: Haematopoietic & Lymphoid tumors, EC50 (μM) MOLT-4
[35] = TF-1 cell line, read-out: Haematopoietic & Lymphoid tumors, EC50 (μM) TF-1
[36] = TOLEDO cell line, read-out: Haematopoietic & Lymphoid tumors, EC50 (μM) TOLEDO
[37] = SNU-398, SNU398 cell line, read-out: Liver cancer, EC50 SNU398
[38] = HEPG2 cell line, read-out: Liver cancer, EC50 HEPG2
[39] = PLC/PRF/5 cell line, read-out: Liver cancer, EC50 PLC/PRF/5
[40] = HCT-116, HCT116 cell line, read-out: Colorectal cancer, EC50 (μM) HCT116
[41] = HT-29, HT29 cell line, read-out: Colorectal cancer, EC50 (μM) HT29
[42] = SW-620, SW620 cell line, read-out: Colorectal cancer, EC50 (μM) SW620
[43] = DLD-1 cell line, read-out: Colorectal cancer, EC50 (μM) DLD-1
[44] = SW48 cell line, read-out: Colorectal cancer, EC50 (μM) SW48
[45] = SW480 cell line, read-out: Colorectal cancer, EC50 (μM) SW480
[46] = A-427, A427 cell line, read-out: Lung cancer, EC50 (μM) A427
[47] = HCC78, HCC-78 cell line, read-out: Lung cancer, EC50 (μM) HCC-78
[48] = NCI-H460 cell line, read-out: Lung cancer, EC50 (μM) NCI-H460
[49] = NCI-H522 cell line, read-out: Lung cancer, EC50 (μM) NCI-H522

Chain of CLK3 (P49761 whole entry): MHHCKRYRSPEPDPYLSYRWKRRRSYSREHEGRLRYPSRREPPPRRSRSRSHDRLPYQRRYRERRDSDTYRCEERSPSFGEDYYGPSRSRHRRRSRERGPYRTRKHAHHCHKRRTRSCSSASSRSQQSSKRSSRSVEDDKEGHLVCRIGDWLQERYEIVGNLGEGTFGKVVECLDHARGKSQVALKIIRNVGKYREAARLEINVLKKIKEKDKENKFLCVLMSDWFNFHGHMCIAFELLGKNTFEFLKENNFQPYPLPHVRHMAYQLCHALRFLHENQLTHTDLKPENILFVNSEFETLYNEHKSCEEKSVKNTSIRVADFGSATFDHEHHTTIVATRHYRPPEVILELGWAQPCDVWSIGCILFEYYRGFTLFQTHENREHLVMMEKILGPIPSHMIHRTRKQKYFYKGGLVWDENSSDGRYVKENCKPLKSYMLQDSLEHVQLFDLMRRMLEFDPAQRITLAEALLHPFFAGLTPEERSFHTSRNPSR
T1 sequence (P49760 whole entry): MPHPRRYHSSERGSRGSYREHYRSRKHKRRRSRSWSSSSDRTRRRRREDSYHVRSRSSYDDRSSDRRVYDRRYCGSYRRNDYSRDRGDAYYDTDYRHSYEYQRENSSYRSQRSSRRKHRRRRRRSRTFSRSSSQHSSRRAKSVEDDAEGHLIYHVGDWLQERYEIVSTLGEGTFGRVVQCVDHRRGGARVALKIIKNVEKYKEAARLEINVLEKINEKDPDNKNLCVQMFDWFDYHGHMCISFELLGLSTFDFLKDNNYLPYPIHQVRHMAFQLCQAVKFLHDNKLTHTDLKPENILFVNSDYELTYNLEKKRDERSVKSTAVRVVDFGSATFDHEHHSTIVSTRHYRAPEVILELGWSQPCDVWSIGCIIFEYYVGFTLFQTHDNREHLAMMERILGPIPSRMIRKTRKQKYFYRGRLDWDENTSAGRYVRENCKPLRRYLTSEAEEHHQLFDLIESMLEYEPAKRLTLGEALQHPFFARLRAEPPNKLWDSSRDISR

SMILES: c1cncc(-c2ccc3[nH]nc(-c4cc5c(-c6cccnc6)cncc5[nH]4)c3c2)c1 [Compound 48]
- EC50 (all 50 cell lines): 3220 nM
- EC50 (CLK2): 0.1 nM
- EC50 [1, 8]: 1870 nM
- EC50 [1, 9]: 1030 nM
- EC50 [1, 10]: 1140 nM
- EC50 [1, 11]: > 3500 nM
- EC50 [1, 12]: 2000 nM
- EC50 (CLK3): 2.5 nM
- EC50 [2, 13]: 3300 nM
- EC50 [2, 14]: 2760 nM
- EC50 [2, 15]: > 3500 nM
- EC50 [2, 16]: 1000 nM
- EC50 [2, 17]: > 3500 nM
- EC50 [2, 18]: > 3500 nM
- EC50 [2, 19]: 1800 nM
- EC50 [3, 20]: 1.29 µM
- EC50 [3, 21]: 1.68 µM
- EC50 [3, 22]: > 3.5 µM
- EC50 [3, 23]: 0.89 µM
- EC50 [4, 24]: 0.894 µM
- EC50 [4, 25]: 0.147 µM
- EC50 [4, 26]: 2.31 µM
- EC50 [4, 27]: 1.23 µM
- EC50 [4, 28]: 3.06 µM
- EC50 [4, 29]: 0.409 µM
- EC50 [4, 30]: 1.77 µM
- EC50 [4, 31]: 0.455 µM
- EC50 [4, 32]: 2.01 µM
- EC50 [4, 33]: 0.952 µM
- EC50 [4, 34]: 2.52 µM
- EC50 [4, 35]: 2.92 µM
- EC50 [4, 36]: 0.317 µM
- EC50 [5, 37]: 381 nM
- EC50 [5, 38]: 2200 nM
- EC50 [5, 39]: > 3500 nM
- EC50 [6, 40]: 1.17 µM
- EC50 [6, 41]: 1.54 µM
- EC50 [6, 42]: 0.886 µM
- EC50 [6, 43]: 2.21 µM
- EC50 [6, 44]: 0.63 µM
- EC50 [6, 45]: 1.57 µM
- EC50 (BT-549): 1310 nM
- EC50 (CAMA1): 1910 nM
- EC50 (ZR-75-1): 3410 nM
- EC50 (MCF7): > 3500 nM
- EC50 (DU4475): 1000 nM
- EC50 (MDA-MB-231-Luc): 2860 nM
- EC50 (HCC1599): 146 nM
- EC50 (T47D): > 3500 nM
- EC50 [7, 46]: 0.875 µM
- EC50 [7, 47]: > 3.5 µM
- EC50 [7, 48]: > 3.5 µM
- EC50 [7, 49]: 1.17 µM

SMILES: CC(C)CC(=O)Nc1cncc(-c2ccc3[nH]nc(-c4cc5c(N6CCCCC6)cncc5[nH]4)c3c2)c1 [Compound 50]
- EC50 (all 50 cell lines): 1590 nM
- EC50 (CLK2): 3.8 nM
- EC50 [1, 8]: 955 nM
- EC50 [1, 9]: 759 nM
- EC50 [1, 10]: 833 nM
- EC50 [1, 11]: 1640 nM
- EC50 [1, 12]: 1790 nM
- EC50 (CLK3): 35.1 nM
- EC50 [2, 13]: 3410 nM
- EC50 [2, 14]: 3510 nM
- EC50 [2, 15]: 2210 nM
- EC50 [2, 16]: 381 nM
- EC50 [2, 17]: 2920 nM
- EC50 [2, 18]: > 10000 nM
- EC50 [2, 19]: 1720 nM
- EC50 [3, 20]: 1.09 µM
- EC50 [3, 21]: 0.419 µM
- EC50 [3, 22]: 1.34 µM
- EC50 [3, 23]: 0.67 µM
- EC50 [4, 24]: 0.258 µM
- EC50 [4, 25]: 0.122 µM
- EC50 [4, 26]: 3.62 µM
- EC50 [4, 27]: 0.419 µM
- EC50 [4, 28]: 0.767 µM
- EC50 [4, 29]: 0.256 µM
- EC50 [4, 30]: 1.07 µM
- EC50 [4, 31]: 0.159 µM
- EC50 [4, 32]: 1.27 µM
- EC50 [4, 33]: 0.174 µM
- EC50 [4, 34]: 1.29 µM
- EC50 [4, 35]: 2.73 µM
- EC50 [4, 36]: 0.441 µM
- EC50 [5, 37]: 91 nM
- EC50 [5, 38]: 1460 nM
- EC50 [5, 39]: 3540 nM
- EC50 [6, 40]: 0.522 µM
- EC50 [6, 41]: 2.8 µM
- EC50 [6, 42]: 0.239 µM
- EC50 [6, 43]: 1.17 µM
- EC50 [6, 44]: 0.312 µM
- EC50 [6, 45]: 0.274 µM
- EC50 (BT-549): 1530 nM
- EC50 (CAMA1): 919 nM
- EC50 (ZR-75-1): 1110 nM
- EC50 (MCF7): 3520 nM
- EC50 (DU4475): 750 nM
- EC50 (MDA-MB-231-Luc): 1200 nM
- EC50 (HCC1599): 828 nM
- EC50 (T47D): 1740 nM
- EC50 [7, 46]: 0.489 µM
- EC50 [7, 47]: 0.92 µM
- EC50 [7, 48]: 9.68 µM
- EC50 [7, 49]: 0.31 µM

— patent US20220062240A1, “METHODS OF TREATING CANCER USING A CLK INHIBITOR” (BioSplice Therapeutics, Inc., priority 2018, published 2022)
